Results taken from the supplement of paper PMC10307832.

Compound: C=C(c1ccc(C(=O)O)cc1)c1cc2c(cc1C)C(C)(C)CCC2(C)C [Bexarotene] + COc1cc2c(Oc3ccc(NC(=O)C4(C(=O)Nc5ccc(F)cc5)CC4)cc3F)ccnc2cc1OCCCN1CCOCC1 [Foretinib] (partner 0.25 µM)
Test: relative viability (nuclei count vs DMSO), 5 days (fraction); higher = more cells survive
In short: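 Each reported value is a median over duplicate plates. It expresses relative viability: treated-well nuclei count divided by vehicle-well nuclei count. Lung cancer cell lines in 1536-well plates were dosed by pin tool a day after seeding, alone with one drug or with a fixed anchor-drug dose plus five library-drug doses (not always all listed) in √10 steps, and nuclei were counted after 5 days.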

Cell Line | relative viability (first compound 0.08 µM) | relative viability (first compound 0.253 µM) | relative viability (first compound 0.8 µM) | relative viability (first compound 2.53 µM) | relative viability (first compound 8 µM)
LCLC-97TM1 | 0.891 | 1 | 0.887 | 0.933 | 0.969
HARA | 0.759 | 0.472 | 0.85 | 0.941 | 0.701
HCC-78 | 0.54 | 0.499 | 0.547 | 0.523 | 0.468
NCI-H1666 | 0.974 | 0.937 | 0.85 | 0.867 | 0.833
NCI-H2347 | 0.878 | 0.783 | 0.703 | 0.882 | 1.09
NCI-H838 | 1.14 | 1.03 | 1.06 | 1.05 | 1.01
NCI-H2023 | 0.841 | 0.799 | 0.899 | 0.775 | 0.68
201T | 1.17 | 1.25 | 1.17 | 1.06 | 0.976
NCI-H1915 | 1.19 | 1.13 | 1.1 | 1.06 | 1.07
NCI-H2009 | 1.33 | 1.34 | 1.24 | 1.29 | 1.19
BEN | 0.802 | 0.387 | 0.567 | 0.318 | 0.674
PC-14 | 1.12 | 1.08 | 0.973 | 1.01 | 0.934
SK-MES-1 | 1.1 | 0.959 | 1.02 | 1.03 | 0.866
NCI-H727 | 1.09 | 1.12 | 0.875 | 0.859 | 0.808
NCI-H1355 | 1 | 1.09 | 0.91 | 1.05 | 0.947
NCI-H1975 | 1.11 | 0.983 | 1.12 | 1.04 | 1.05
LK-2 | 1.42 | 1.27 | 1.54 | – | 1.68
NCI-H661 | 1.02 | 1.04 | 0.916 | 0.967 | 0.933
HCC-366 | 0.94 | 0.989 | 0.962 | 0.969 | 0.834

Cell Line | relative viability (first compound 0.08 µM) | relative viability (first compound 0.253 µM) | relative viability (first compound 0.8 µM) | relative viability (first compound 2.53 µM) | relative viability (first compound 8 µM)
HOP-62 | 1.35 | 1.28 | 1.23 | 1.14 | 1.08
NCI-H1944 | 1.25 | 1.09 | 1.04 | 1.16 | 0.965
SW 1573 | 1.02 | 0.831 | 0.661 | 0.669 | 0.666
LU99A | 0.908 | 0.865 | 0.898 | 0.931 | 0.809
NCI-H647 | 1.32 | 1.42 | 1.4 | 1.32 | 1.04
A-427 | 1.14 | 0.932 | 0.941 | 1.05 | 0.868
COR-L 105 | 1.07 | 1.05 | 1.07 | 1.12 | 0.833
NCI-H441 | 1.01 | 1.04 | 1.13 | 0.841 | 0.927
NCI-H2126 | 0.971 | 1.2 | 1.1 | 1.22 | 1.07
EBC-1 | 0.111 | 0.124 | 0.101 | 0.129 | 0.112
NCI-H460 | 1.1 | 0.99 | 0.976 | 1.02 | 1.01
SK-LU-1 | 0.785 | 0.898 | – | 0.791 | 0.762
SW 900 | 0.991 | 0.881 | 0.901 | 1 | 0.862
NCI-H322M | 1.06 | 1.14 | 0.946 | 0.977 | 0.978
EKVX | 0.666 | 0.915 | 0.925 | 0.822 | 0.711
NCI-H1734 | 0.913 | 0.799 | 0.928 | 0.822 | 0.769
ABC-1 | 0.991 | 1.19 | 1.13 | 0.855 | 1.08
NCI-H520 | 0.854 | 0.678 | 0.652 | 0.812 | 0.727
EPLC-272H | 0.666 | 0.555 | 0.75 | 0.588 | 0.737
